# Data published in US20220168391A1, “USE OF EPIDERMAL GROWTH FACTOR IN DIABETIC FOOT ULCER TREATMENT” (Centro de Ingeniería Genética y Biotecnología, priority 2019, published 2022).
# What was measured:
# patients with DFU [1] = experiment: Example 1: intralesional rhEGF in three treatment regimes, granulation, lesion closure and amputations in DFU patients; format: in vivo, human
# Protocol: To do so, the reconstitution and dilution of the vial containing the drug was performed with 5 mL of water for injection. The administrations were made until 100% granulation of lesion, the closure of the lesion by grafting, or when a maximum of 8 weeks of treatment was attained.
# Patients belonging to group 3 received the drug (75 μg/dose) three times a week, during the first week, by intralesional route. From the second week onward, the treatment continued with a dose of 225 μg, once a week. The treatment period was 8 weeks, although it was shorter if the complete closure of the lesion occurred earlier or if the ulcer reached a size smaller than 1 cm^2.
# The formulated product was lyophilized in vials containing 25 μg or 75 μg of the active pharmaceutical ingredient. The composition also contained pharmaceutically acceptable excipients, such as stabilizers and pH regulators.
# Patients in all three groups continued receiving conventional therapy, which was performed according to the DFU treatment standards established by the National Angiology Group of Cuba. This consists of: offloading of the lesion, metabolic control of the underlying disease with insulin (which replaces oral hypoglycemic agents), washing of the lesion with saline solution and mild soap substances, debridement, application of sterile dressings with gauze bandage, and antimicrobials, depending on the type of infectious germ present in the lesion.
# The area of the DFU and the percentage of granulation were measured by a commercial system created for these purposes (Visitrak™, Smith & Nephew), which consists of grid transparent films and a device to measure the lesion by planimetry. This system has been previously validated (Sugama J, et al. J Clin Nurs 2007; 16 (7): 1265-1269). Using a permanent marker, the tracing of the contours of the lesion and the granulated regions, on the grid transparent film, was conducted.
# [2] = Example 2: pharmacokinetic study, rhEGF levels in plasma of DFU patients after intralesional administration (ELISA); format: in vivo, human; settings: for Amount of rhEGF remaining in the area of the ulcer: bioavailability analysis; for AUC / t½: intralesional, plasma, immediately after the first administration
# Protocol: A pharmacokinetic study was carried out, starting from blood samples taken from 31 patients. […] The most important parameters evaluated were the ‘Area under the Curve’ (AUC) and the half-life time (t½) among others. […] The treatment was performed for 8 weeks, or less time if the ulcer area reached a measure equal or less than 1 cm^2.
# For the quantitation of this growth factor, the instructions of the kit manufacturer were followed.
# [3] = test system: patients of DFU with amputation criteria of the affected limb; experiment: Example 3: healing of DFU after intralesional rhEGF at different doses, three times a week then once a week, versus three times a week control; format: in vivo, human; settings: for Closure of the lesion (%) / Closure of the lesion, number of patients: three times a week then once a week, during follow-up; for Complete granulation response (%) / Complete granulation response, number of patients: at 8 weeks
# Protocol: The route of administration was always the intralesional one. […] The doses administered per group were 2.5 μg, 25 μg, 50 μg and 75 μg. Seven patients were incorporated into the group that received 2.5 μg, 10 patients to the group that received the 25 μg dose; 13 patients to the group that received 50 μg and 18 patients in the group of 75 μg.
# On the other hand, there was a group of 93 patients who were treated, during the whole period, with the dose of 75 μg three times a week. The period of treatment was 8 weeks.
# Patients in all groups continued receiving the conventional therapy, which was performed according to the DFU standard treatment established by the National Angiology Group of Cuba, as summarized in Example 1.
# [4] = test system: DFU patients with no amputation criteria of the limb; experiment: Example 4: healing of DFU after intralesional rhEGF once a week plus conventional therapy; format: in vivo, human
# Protocol: The intralesional treatment with this growth factor was performed once a week, for 8 weeks, or for less time, if the lesion closed up to a dimension equal to or less than 1 cm^2. Another group of patients received conventional therapy only, with the difference that the procedure was performed three times a week, until the complete closure of the lesion was achieved.
# The patients in these series had no amputation criteria of the limb affected by the DFU at the time of the initial evaluation. […] As mentioned before, conventional therapy in all patients was performed according to the standards of treatment for DFU established by the National Angiology Group of Cuba.
# patients with DFU [5] = experiment: Example 5: case reports, injectable rhEGF once a week in DFU patients with no criteria for amputation; format: in vivo, human; settings: 75 μg once a week for two weeks
# Text: The size of the lesion, after debridement, was 10 cm^2.
# The ulcer base was covered with more than 75% of useful granulation tissue. The ulcer size was 7 cm^2.
# DFU = settings: approved lyophilized medicament, intralesional; highest reduction in less complicated ulcers; cited from earlier work
# [6] = Group 1: 75 μg/dose three times a week, n = 45
# [7] = Group 2: 25 μg/dose three times a week intralesional, n = 45, at 3 weeks
# [8] = Group 2: 25 μg/dose three times a week, n = 45
# [9] = Group 2: 25 μg/dose three times a week, n = 45, end of treatment
# [10] = Group 3: 75 μg three times a week first week, then 225 μg once a week, n = 25
# [11] = Group 3: 75 μg three times a week first week, then 225 μg once a week, n = 25, end of treatment
# [12] = Group 3: 75 μg three times a week in first week, then 225 μg once a week, n = 25, at 3 weeks
# [13] = 25 μg three times a week then once a week, n = 10
# [14] = 50 μg three times a week then once a week, n = 13, at 3 weeks
# [15] = 75 μg three times a week then once a week, n = 18
# [16] = Control Group: 75 μg three times a week for 8 weeks, n = 93, at 3 weeks
# [17] = Control Group: 75 μg three times a week for 8 weeks, n = 93
# [18] = 2.5 μg once a week plus conventional therapy, n = 10, between 8 and 12 weeks
# [19] = 25 μg once a week plus conventional therapy, n = 15, between 8 and 12 weeks
# [20] = 50 μg once a week plus conventional therapy, n = 15, between 8 and 12 weeks
# [21] = 75 μg once a week plus conventional therapy, n = 20, between 8 and 12 weeks
substance,measurement,setting,value
recombinant human Epidermal Growth Factor [rhEGF],Granulation Objective Response CR*+PR* (%),"patients with DFU [1]; Group 1: 75 μg/dose three times a week intralesional, n = 45, at 3 weeks",75%
same,"Granulation Objective Response CR*+PR*, number of patients","patients with DFU [1]; Group 1: 75 μg/dose three times a week intralesional, n = 45, at 3 weeks (>50% of lesion area covered by granulation tissue)",34
same,"Amputations, number of patients",patients with DFU [1]; [6],6
same,"Lesion Closure, number of patients",patients with DFU [1]; [6],34
same,Granulation Complete Response CR (%),"patients with DFU [1]; Group 1: 75 μg/dose three times a week, n = 45, end of treatment",80%
same,"Granulation Complete Response CR, number of patients","patients with DFU [1]; Group 1: 75 μg/dose three times a week, n = 45, end of treatment (100% of lesion area granulated)",36
same,Granulation Objective Response CR*+PR* (%),patients with DFU [1]; [7],64%
same,"Granulation Objective Response CR*+PR*, number of patients",patients with DFU [1]; [7],29
same,Amputations (%),patients with DFU [1]; [8],22%
same,"Lesion Closure, number of patients",patients with DFU [1]; [8],27
same,Granulation Complete Response CR (%),patients with DFU [1]; [9],69%
same,"Granulation Complete Response CR, number of patients",patients with DFU [1]; [9],31
same,"Amputations, number of patients",patients with DFU [1]; [10],3
same,"Lesion Closure, number of patients",patients with DFU [1]; [10],18
same,Granulation Complete Response CR (%),patients with DFU [1]; [11],76%
same,"Granulation Complete Response CR, number of patients",patients with DFU [1]; [11],19
same,Granulation Objective Response CR*+PR* (%),patients with DFU [1]; [12],68%
same,"Granulation Objective Response CR*+PR*, number of patients",patients with DFU [1]; [12],17
same,Amount of rhEGF remaining in the area of the ulcer,[2]; 25 μg dose,about 19 μg
same,AUC,[2]; 25 μg dose,0.0851 ± 0.0502 ng·h/mL
same,t½,[2]; 25 μg dose,51 ± 46.8 min
same,Amount of rhEGF remaining in the area of the ulcer,[2]; 75 μg dose,~58 µg
same,AUC,[2]; 75 μg dose,0.1978 ± 0.0739 ng·h/mL
same,t½,[2]; 75 μg dose,39.6 ± 10.8 min
same,Amount of rhEGF remaining in the area of the ulcer,[2]; 225 μg dose,around 63 μg
same,AUC,[2]; 225 μg dose,0.2886 ± 0.0894 ng·h/mL
same,t½,[2]; 225 μg dose,45 ± 12.6 min
same,Plasma rhEGF value after two hours of sample collection,"[2]; independently of the dose received (25, 75, 225 μg)",returned to baseline levels
same,Closure of the lesion (%),[3]; 2.5 μg group,57%
same,"Closure of the lesion, number of patients",[3]; 2.5 μg group,4
same,Objective granulation response (%),"[3]; 2.5 μg three times a week then once a week, n = 7, at 3 weeks",(57%)
same,Complete granulation response (%),"[3]; 2.5 μg three times a week then once a week, n = 7",(71%)
same,"Objective granulation response, number of patients","[3]; 2.5 μg three times a week until no amputation criterion, then once a week, n = 7, ≥75% of lesion area granulated at 3 weeks",4
same,"Objective granulation response, number of patients","[3]; 25 μg three times a week then once a week, n = 10, at 3 weeks",6
same,Complete granulation response (%),[3]; [13],(70%)
same,"Complete granulation response, number of patients",[3]; [13],7
same,Closure of the lesion (%),[3]; 50 μg group,69%
same,"Closure of the lesion, number of patients",[3]; 50 μg group,9
same,Objective granulation response (%),[3]; [14],(61%)
same,"Objective granulation response, number of patients",[3]; [14],8
same,Complete granulation response (%),"[3]; 50 μg three times a week then once a week, n = 13",(77%)
same,Closure of the lesion (%),[3]; 75 μg group,72%
same,Objective granulation response (%),"[3]; 75 μg three times a week then once a week, n = 18, at 3 weeks",(72%)
same,Complete granulation response (%),[3]; [15],(83%)
same,"Complete granulation response, number of patients",[3]; [15],15
same,Objective granulation response (%),[3]; [16],(77%)
same,"Objective granulation response, number of patients",[3]; [16],72
same,Complete granulation response (%),[3]; [17],(85%)
same,"Complete granulation response, number of patients",[3]; [17],79
same,Closure of the lesion (% of the patients),"[3]; control group, 75 μg three administrations per week",81%
same,Reduction in the risk of amputation,[3]; new treatment schedule (three times a week then once a week) along with conventional therapy,more than 80%
same,Amputations,[3]; the four groups that differed in the rhEGF dose and the control group,below 12%
same,Closure of the Lesion No (%),[4]; [18],(40%)
same,"Closure of the Lesion No, number of patients",[4]; [18],4
same,"Closure of the Lesion Yes, number of patients","[4]; 2.5 μg once a week plus conventional therapy, n = 10, between 8 and 12 weeks after commencement",6
same,Closure of the Lesion No (%),[4]; [19],(33%)
same,Closure of the Lesion Yes (%),[4]; [19],(67%)
same,Closure of the Lesion No (%),[4]; [20],(40%)
same,"Closure of the Lesion No, number of patients",[4]; [20],6
same,"Closure of the Lesion Yes, number of patients",[4]; [20],9
same,"Closure of the Lesion No, number of patients",[4]; [21],4
same,Closure of the Lesion Yes (%),[4]; [21],(80%)
same,"Closure of the Lesion Yes, number of patients",[4]; [21],16
same,"Lesion closure, Patient A","patients with DFU [5]; Patient A, 10 cm^2 superficial lesion, after said time",complete closure of the lesion was attained
same,"Time to closure of the lesion after the first application, Patient B","patients with DFU [5]; Patient B, 7 cm^2 deep lesion",9 weeks
same,"Granulation response, Patient B","patients with DFU [5]; Patient B, 7 cm^2 deep lesion, after said time",complete granulation response was obtained
same,Reduction of amputation rates,DFU,≥ 70%
